From US20150283127A1, “SAQUINAVIR-NO FOR IMMUNOMODULATION” (ONCONOX APS, priority 2012, published 2015)

Tests used:
[1] = tested on: melanoma, astrocytoma, prostate cancer cells and various human multidrug resistant tumor cell lines; details: cited from earlier work
PLP-induced EAE = PLP-induced EAE in SJL mice; format: in vivo
Excerpt: (§1) Seven to 8 weeks-old male C57Bl6 mice and 6 to 7 weeks-old female SJL mice (Harlan Laboratories srl, San Pietro al Natisone, Udine, Italy) were used in the experiments. They were kept under standard laboratory conditions (non specific pathogen free) with free access to food (Harlan Global Diet 2018) and water and were allowed to adapt at least one week to their environment before commencing the study.
PLP (139-151) was synthesized by Genemed synthesis (San Francisco Calif.). EAE was induced as described by J. St. Louis et al. (4). The mice were immunized with 75 μg PLP emulsified in CFA with 6 mg/ml Mycobacterium tuberculosis H37RA (Difco, Detroit, Mich., USA) to make a 1:1 emulsion. Each mouse received subcutaneous injections of 200 μl emulsion divided among four sites draining into the axillary and inguinal lymph nodes. Pertussis toxin (Calbiochem, Nottingham, UK) was used as a co-adjuvant and was administered i.p. at the dose of […] on day 0 and 2 post immunization. The mice were observed every day by measuring their body weights and clinical signs of EAE until 30 days after immunization. These clinical grading were carried out by an observer unaware of the treatment: 0=no sign of disease; 0.5=partial tail paralysis; 1=tail paralysis; 1.5=tail paralysis+partial unilateral hindlimb paralysis; 2=tail paralysis+hindlimb weakness or partial hindlimb paralysis; 2.5=tail paralysis+partial hindlimb paralysis (lowered pelvi); 3=tail paralysis+complete hindlimb paralysis; 3.5=tail paralysis+complete hindlimb paralysis+incontinence; 4=tail paralysis+hindlimb paralysis+weakness or partial paralysis of forelimbs; 5=moribund or dead.
Four groups of 7/8 mice were treated under a late prophylactic regime from day 7 to day 30 as follow:
Group 1: Saquinavir 10 mg/Kg (i.p. once daily)
Group 2: Saq-NO 10 mg/Kg (s.c. once daily)
Group 3: Saq-NO 20 mg/Kg (i.p. once daily)
Group 4: DMSO/H2O (vehicle) (i.p. once daily)

MOG-induced EAE = MOG-induced EAE in C57Bl6 mice; format: in vivo; details: for Clinical course of the disease: day 7 to 30; for Disease after interruption of the late prophylactic treatment: observed for further 11 days
Excerpt: as §1
MOG35-55 was synthesized by Genemed synthesis (San Francisco Calif.). The mice were immunized with 200 μg MOG emulsified in CFA with 1 mg of Mycobacterium tuberculosis H37RA (Difco, Detroit, Mich., USA) to make a 1:1 emulsion. Each mouse received subcutaneous injections of 200 μl emulsion divided among two sites draining into the axillary lymph nodes. Pertussis toxin (Calbiochem, Nottingham, UK) was used as a coadjuvant and was administered i.p. at the dose of 200 ng/mouse on day 0 and 2 post immunization. The mice were observed every day by measuring their body weights and clinical signs of EAE until 30 days after immunization. These clinical grading were carried out by an observer unaware of the treatment: 0=no sign of disease; 0.5=partial tail paralysis; 1=tail paralysis; 1.5=tail paralysis+partial unilateral hindlimb paralysis; 2=tail paralysis+hindlimb weakness or partial hindlimb paralysis; 2.5=tail paralysis+partial hindlimb paralysis (lowered pelvi); 3=tail paralysis+complete hindlimb paralysis; 3.5=tail paralysis+complete hindlimb paralysis+incontinence; 4=tail paralysis+hindlimb paralysis+weakness or partial paralysis of forelimbs; 5=moribund or dead.
The study involved 4 groups of 10 animals each. All the groups were immunized with the MOG35-55 peptide in CFA and pertuxis toxin, according to the immunization procedure described above and assigned to the following treatments:
The late prophylactic treatment started on day 7 immunization and continued until day 30; the therapeutic regime started at the onset of the disease and continued for 23 consecutive days.

murine CD4+ cells = assay: Cytokine generation (ELISA) in murine CD4+ cells stimulated with anti-CD3 and anti-CD28; format: cell-based, mouse; details: for Influence on IL-10 / TNF release: CD4+ cells
Excerpt: Experimental animals (C57BL/6 mice, BALB/c mice and Dark Agouti rats) were obtained from the Animal House Facility of the Institute for Biological Research “Sinisa Stanković”, Belgrade, Serbia. Spleen cells (SPC) were isolated from murine spleens and lymph node cells (LNC) were obtained from rat cervical lymph nodes of untreated animals. Draining lymph node cells (DLNC) were obtained from popliteal lymph nodes 8-10 days after immunization of rats with myelin basic protein (guinea pig MBP, kind gift from professor Alexander Fluegel, University of Goettingen, Germany) and complete Freund's adjuvant (CFA, Difco, Detroit, Mich.). The organs were mechanically disrupted, passed through 40-μm nylon mesh filter and the resulting suspension was collected by centrifugation. Red blood cells from single cell suspensions obtained from spleens were lysed using RBC Lysis Buffer (eBioscience, San Diego, Calif.). CD4+ cells were purified from SPC using biotin conjugated antibody specific for CD4 (eBioscience) and IMag SAv particles plus (BD Biosciences, San Diego, Calif.). Obtained purity of CD4 population was more than 97% as determined by flow cytometry. SPC and LNC were seeded at 5×10^6/ml/well, DLNC at 2.5×10^6/ml/well and CD4+ cells at 1×10^6/ml/well of 24-well plates. Cells infiltrating spinal cords (SC) were obtained from SC of rats immunized with MBP+CFA at the time when rats suffered from severe clinical signs of experimental autoimmune encephalomyelitis (EAE). Rats were perfused with sterile PBS, SC were homogenized, adjusted to 30% Percoll (Sigma-Aldrich) and overlaid on 70% Percoll gradient. Following centrifugation at 870 g for 50 min the SC cells (SCC) were recovered from the […] Percoll interface and washed in RPMI-1640 medium. SCC were seeded at 0.5×106/200 μl/well of 96-well plates. SPC and LNC were stimulated with 2.5 μg/ml concanavalin A (ConA, Sigma-Aldrich), DLNC with MBP (10 ng/ml), CD4+ cells with anti-CD3 and anti-CD28 antibody (1 μg/ml each, both from eBioscience) and SCC were left untreated.
Cytokine concentration in cell culture supernatants was determined by sandwich ELISA using MaxiSorp plates (Nunc, Rochild, Denmark) and anti-cytokine paired antibodies according to the manufacturer's instructions. Samples were analyzed in duplicate for murine/rat IL-17, murine IL-10, murine TNF, murine IL-4 (eBioscience), murine IFN-γ, rat IFN-γ, rat IL-4 (R&D, Minneapolis, Minn.), rat IL-10 and rat TNF (BD Biosciences). The results were calculated using standard curves made on the basis of known concentrations of the appropriate recombinant cytokines.
CD4+ cells were purified from C57BL/6 SPC and stimulated with anti-CD3 and anti-CD28 antibodies in the presence of various concentrations of Saq-NO for 24 hours. The influence of Saq-NO on cytokine generation was compared to its influence on CD4+ cell viability and to the influence of Saq on the same parameters. […] Thus, Saq-NO directly affects T cell cytokine production.

[2] = late prophylactic, 10 mg/Kg once daily
[3] = late prophylactic treatment, 10 mg/Kg i.p. daily
[4] = anti-CD3 and anti-CD28, 24 hours

Structure (SMILES)	Anti-cancer properties in comparison to Saq [1]	Cumulative score and duration of the disease compared to vehicle treated mice (PLP-induced EAE; [2])	Clinical course of the disease (PLP-induced EAE; late prophylactic, 10 mg/Kg once daily, day 7 to 30)	Cum score and duration compared to vehicle-treated mice (PLP-induced EAE; late prophylactic, high dose 20 mg/Kg i.p. once daily)	Disease after interruption of the treatment (PLP-induced EAE; observed for further 20 days)	Cumulative score and duration of the disease compared to vehicle treated mice (MOG-induced EAE; full therapeutic regime, 10 mg/Kg i.p. daily from onset, 23 days)	Time after treatment interruption to reach the clinical score of vehicle treated mice (MOG-induced EAE; late prophylactic treatment interrupted) [days]	Cumulative score and duration of the disease compared to vehicle treated mice (MOG-induced EAE; [3])	Clinical course of the disease (MOG-induced EAE; [3])	Disease after interruption of the late prophylactic treatment (MOG-induced EAE)	Generation of IFN-g, IL-4 and IL-17 (murine CD4+ cells; CD4+ cells of C57BL/6 SPC, anti-CD3 and anti-CD28, 24 hours)	Influence on IL-10 (murine CD4+ cells; [4])	TNF release (murine CD4+ cells; [4])	IL-17 secretion from purified CD4+ T cells at low concentrations (murine CD4+ cells; concentrations of 2.5 and 5 mM)
CC(C)(C)NC(=O)C1C[C@@H]2CCCC[C@@H]2CN1CC(O[N+](=O)[O-])[C@H](Cc1ccccc1)NC(=O)C(CC(N)=O)NC(=O)c1ccc2ccccc2n1 (stereo partly shown) [Saq-NO, nitric ester of Saquinavir]	superior	significantly lower	ameliorated	lower but not significant	most evidently	significant reduction	≤ 9	significantly lower	ameliorated	developed a strong disease	more effectively than Saq	similarly potent	did not modulate	–
CC(C)(C)NC(=O)[C@@H]1C[C@@H]2CCCC[C@@H]2CN1C[C@@H](O)[C@H](Cc1ccccc1)NC(=O)[C@H](CC(N)=O)NC(=O)c1ccc2ccccc2n1 [Saq, (2S)—N-[(2S,3R)-4-[(3S)-3-(tert-butylcarbamoyl)-decahydroisoquinolin-2-iy]-3-hydroxy-1-phenylbutan-2-il]-2-(quinolin-2-ylformamido)butanediamide, reference compound]	–	lower but not significant	–	–	–	–	–	–	slightly reduced	maintained the same severity of the disease	–	similarly potent	did not modulate	inhibitory effect
